# Species on record: Rattus norvegicus
# Assay: DrugMatrix - Regimen: Daily Repeat
# Format: toxicity, organism-based, Sprague-Dawley
# Set-up: regimen Daily Repeat, gender Male, age 6-8 weeks
# Details: in vivo, po, 59 mg/kg, route oral GAVAGE, dose level Low, […]; for ABSOLUTE BASOPHIL / ABSOLUTE EOSINOPHIL / ABSOLUTE LYMPHOCYTE / ABSOLUTE MONOCYTE / ABSOLUTE SEGMENTED NEUTROPHIL / BASOPHIL / EOSINOPHIL / ERYTHROCYTE COUNT / HEMATOCRIT / HEMOGLOBIN / LEUKOCYTE COUNT / LYMPHOCYTE / MEAN CORPUSCULAR HEMOGLOBIN / MEAN CORPUSCULAR HEMOGLOBIN CONCENTRATION / MEAN CORPUSCULAR VOLUME / MONOCYTE / NEUTROPHIL / NUCLEATED RED BLOOD CELLS / PLATELET COUNT: tissue Blood; for ALANINE AMINOTRANSFERASE / ALBUMIN / ALKALINE PHOSPHATASE / ASPARTATE AMINOTRANSFERASE / BLOOD UREA NITROGEN / CARBON DIOXIDE / CHLORIDE / CHOLESTEROL / CREATINE PHOSPHOKINASE / CREATININE / GLUCOSE / LACTATE DEHYDROGENASE / LIPASE / PHOSPHORUS / POTASSIUM / SODIUM / TOTAL BILIRUBIN / TOTAL PROTEIN / URIC ACID: tissue Plasma
compound,measurement,setting,value
Oc1c(Cl)cc(Cl)cc1Sc1cc(Cl)cc(Cl)c1O [BITHIONOL],ABSOLUTE BASOPHIL,"72 h, time 3 day",0 CELLS/uL
same,ABSOLUTE EOSINOPHIL,"72 h, time 3 day",0 CELLS/uL
same,ABSOLUTE LYMPHOCYTE,"72 h, time 3 day",6654 CELLS/uL
same,ABSOLUTE MONOCYTE,"72 h, time 3 day",41.33 CELLS/uL
same,ABSOLUTE SEGMENTED NEUTROPHIL,"72 h, time 3 day",671.33 CELLS/uL
same,BASOPHIL,"72 h, time 3 day",0%
same,EOSINOPHIL,"72 h, time 3 day",0%
same,ERYTHROCYTE COUNT,"72 h, time 3 day",5.26 x10E6/uL
same,HEMATOCRIT,"72 h, time 3 day",32.77%
same,HEMOGLOBIN,"72 h, time 3 day",12.93 G/DL
same,LEUKOCYTE COUNT,"72 h, time 3 day",7.37 x10E3/uL
same,LYMPHOCYTE,"72 h, time 3 day",90%
same,MEAN CORPUSCULAR HEMOGLOBIN,"72 h, time 3 day",24.57 pg
same,MEAN CORPUSCULAR HEMOGLOBIN CONCENTRATION,"72 h, time 3 day",39.5 G/DL
same,MEAN CORPUSCULAR VOLUME,"72 h, time 3 day",62.3 fL
same,MONOCYTE,"72 h, time 3 day",0.67%
same,NEUTROPHIL,"72 h, time 3 day",9.33%
same,NUCLEATED RED BLOOD CELLS,"72 h, time 3 day",0 /100WBC
same,PLATELET COUNT,"72 h, time 3 day",1231 x10E3/uL
same,ALANINE AMINOTRANSFERASE,"72 h, time 3 day",78.67 u/L
same,ALBUMIN,"72 h, time 3 day",4.07 G/DL
same,ALKALINE PHOSPHATASE,"72 h, time 3 day",362 u/L
same,ASPARTATE AMINOTRANSFERASE,"72 h, time 3 day",89.33 u/L
same,BLOOD UREA NITROGEN,"72 h, time 3 day",13.67 mg/dL
same,CARBON DIOXIDE,"72 h, time 3 day",31.67 mmol/L
same,CHLORIDE,"72 h, time 3 day",98.67 MEQ/L
same,CHOLESTEROL,"72 h, time 3 day",74.33 mg/dL
same,CREATINE PHOSPHOKINASE,"72 h, time 3 day",365.67 u/L
same,CREATININE,"72 h, time 3 day",0.18 mg/dL
same,GLUCOSE,"72 h, time 3 day",157.67 mg/dL
same,LACTATE DEHYDROGENASE,"72 h, time 3 day",123.67 u/L
same,LIPASE,"72 h, time 3 day",10 u/L
same,PHOSPHORUS,"72 h, time 3 day",11.23 mg/dL
same,POTASSIUM,"72 h, time 3 day",6.04 MEQ/L
same,SODIUM,"72 h, time 3 day",142.9 MEQ/L
same,TOTAL BILIRUBIN,"72 h, time 3 day",0.17 mg/dL
same,TOTAL PROTEIN,"72 h, time 3 day",5.97 G/DL
same,URIC ACID,"72 h, time 3 day",0.6 mg/dL
same,ABSOLUTE BASOPHIL,"120 h, time 5 day",0 CELLS/uL
same,ABSOLUTE EOSINOPHIL,"120 h, time 5 day",30 CELLS/uL
same,ABSOLUTE LYMPHOCYTE,"120 h, time 5 day",8041.67 CELLS/uL
same,ABSOLUTE MONOCYTE,"120 h, time 5 day",31.33 CELLS/uL
same,ABSOLUTE SEGMENTED NEUTROPHIL,"120 h, time 5 day",663.67 CELLS/uL
same,BASOPHIL,"120 h, time 5 day",0%
same,EOSINOPHIL,"120 h, time 5 day",0.33%
same,ERYTHROCYTE COUNT,"120 h, time 5 day",5.55 x10E6/uL
same,HEMATOCRIT,"120 h, time 5 day",33.6%
same,HEMOGLOBIN,"120 h, time 5 day",13.2 G/DL
same,LEUKOCYTE COUNT,"120 h, time 5 day",8.77 x10E3/uL
same,LYMPHOCYTE,"120 h, time 5 day",91.67%
same,MEAN CORPUSCULAR HEMOGLOBIN,"120 h, time 5 day",23.8 pg
same,MEAN CORPUSCULAR HEMOGLOBIN CONCENTRATION,"120 h, time 5 day",39.27 G/DL
same,MEAN CORPUSCULAR VOLUME,"120 h, time 5 day",60.53 fL
same,MONOCYTE,"120 h, time 5 day",0.33%
same,NEUTROPHIL,"120 h, time 5 day",7.67%
same,NUCLEATED RED BLOOD CELLS,"120 h, time 5 day",0 /100WBC
same,PLATELET COUNT,"120 h, time 5 day",933.33 x10E3/uL
same,ALANINE AMINOTRANSFERASE,"120 h, time 5 day",82.33 u/L
same,ALBUMIN,"120 h, time 5 day",4.23 G/DL
same,ALKALINE PHOSPHATASE,"120 h, time 5 day",343.33 u/L
same,ASPARTATE AMINOTRANSFERASE,"120 h, time 5 day",99.67 u/L
same,BLOOD UREA NITROGEN,"120 h, time 5 day",14.67 mg/dL
same,CARBON DIOXIDE,"120 h, time 5 day",27.67 mmol/L
same,CHLORIDE,"120 h, time 5 day",102.33 MEQ/L
same,CHOLESTEROL,"120 h, time 5 day",55.67 mg/dL
same,CREATINE PHOSPHOKINASE,"120 h, time 5 day",348 u/L
same,CREATININE,"120 h, time 5 day",0.19 mg/dL
same,GLUCOSE,"120 h, time 5 day",150.67 mg/dL
same,LACTATE DEHYDROGENASE,"120 h, time 5 day",104.67 u/L
same,LIPASE,"120 h, time 5 day",19 u/L
same,PHOSPHORUS,"120 h, time 5 day",9.53 mg/dL
same,POTASSIUM,"120 h, time 5 day",5.41 MEQ/L
same,SODIUM,"120 h, time 5 day",145.97 MEQ/L
same,TOTAL BILIRUBIN,"120 h, time 5 day",0.23 mg/dL
same,TOTAL PROTEIN,"120 h, time 5 day",5.97 G/DL
same,URIC ACID,"120 h, time 5 day",0.9 mg/dL

# — ChEMBL document CHEMBL3885881, “DrugMatrix”
